Measurements taken from patent US4148996A, “3,7-Disubstituted cephalosporins” (Societa Farmaceutici Italia S.p.A., priority 1976, dated 1979).
Converted amounts (≈) assume the structure as drawn. Read-outs that look alike come from different tables or passages of the source.

Assays:
S.aureus = experiment: in vitro MIC by serial dilution, S.aureus; assay type: cell-based, Staphylococcus aureus; conditions: for MIC: Staphylococcus aureus, read-out: MIC (minimal inhibitory concentration); for antistaphylococcal activity: in words, compared with cephazolin and cephalothin
Description: (§1) A series of comparative tests was carried out in vitro with the method of serial dilutions in Penassay Seed Broth Difco inoculated with 10^4 bacteria/ml (overnight cultures).
(§2) Table 1 below reports the results of the above assays as MIC (minimal inhibitory concentration, mcg/ml).

S.pyogenes = experiment: in vitro MIC by serial dilution, S.pyogenes; assay type: cell-based; conditions: Streptococcus pyogenes, read-out: MIC (minimal inhibitory concentration)
Description: as §1, §2

E.coli B = experiment: in vitro MIC by serial dilution, E.coli B; assay type: cell-based; conditions: Escherichia coli, read-out: MIC (minimal inhibitory concentration)
Description: as §1, §2

K.pneumoniae = experiment: in vitro MIC by serial dilution, K.pneumoniae; assay type: cell-based; conditions: Klebsiella pneumoniae, read-out: MIC (minimal inhibitory concentration)
Description: as §1, §2

S.flexneri = experiment: in vitro MIC by serial dilution, S.flexneri; assay type: cell-based; conditions: Shigella flexneri, read-out: MIC (minimal inhibitory concentration)
Description: as §1, §2

S.abortivoequina = experiment: in vitro MIC by serial dilution, S.abortivoequina; assay type: cell-based; conditions: Salmonella, read-out: MIC (minimal inhibitory concentration)
Description: as §1, §2

P.mirabilis = experiment: in vitro MIC by serial dilution, P.mirabilis; assay type: cell-based; conditions: Proteus mirabilis, read-out: MIC (minimal inhibitory concentration)
Description: as §1, §2

Staphylococcus aureus = experiment: in vivo therapeutic activity on mice experimentally infected with Staphylococcus aureus; set-up: species or system male Swiss Cobs albino mice; conditions: for ED50: Staphylococcus aureus, sc, 168 h, Table 2, 2 LD50/mouse i.p., subcutaneous treatment 4 h after infection, 7 days, read-out: ED50 (dose effective in curing 50% of the infected mice); for effectiveness on experimental staphylococcal infections: in words, compared with cephazolin and cephalothin
Description: (§3) In vivo tests for therapeutic activity were carried out on mice experimentally infected with Staphylococcus aureus and Salmonella abortivoequina (Infective dose: 2 LD50 /mouse i.p.); groups of 6 male Swiss Cobs albino mice were used. The infected animals were treated by the subcutaneous route 4 h after infection. The mortality rate was recorded every day for 7 days. The activity was assessed as ED50 (Dose effective in curing 50% of the infected mice as mg/Kg--see Reed and Muench, Am. J. Hyg. 27, 493, 1938.)

S.typhimurium = experiment: in vitro MIC by serial dilution, S.typhimurium; assay type: cell-based; conditions: Salmonella enterica, read-out: MIC (minimal inhibitory concentration)
Description: as §1, §2

[1] = tested on: Salmonella abortivoequina; experiment: in vivo therapeutic activity on mice experimentally infected with Salmonella abortivoequina; set-up: species or system male Swiss Cobs albino mice; conditions: sc, 168 h
Description: as §3

[2] = S.aureus, serial dilutions in Penassay Seed Broth Difco, 10^4 bacteria/ml
[3] = S.pyogenes, serial dilutions in Penassay Seed Broth Difco, 10^4 bacteria/ml
[4] = E.coli B, serial dilutions in Penassay Seed Broth Difco, 10^4 bacteria/ml
[5] = K.pneumoniae, serial dilutions in Penassay Seed Broth Difco, 10^4 bacteria/ml
[6] = S.flexneri, serial dilutions in Penassay Seed Broth Difco, 10^4 bacteria/ml
[7] = S.abortivoequina, serial dilutions in Penassay Seed Broth Difco, 10^4 bacteria/ml
[8] = P.mirabilis, serial dilutions in Penassay Seed Broth Difco, 10^4 bacteria/ml
[9] = S.typhimurium, serial dilutions in Penassay Seed Broth Difco, 10^4 bacteria/ml

Row | SMILES | MIC (S.aureus; [2]) [µg/mL] | antistaphylococcal activity (S.aureus) | MIC (S.pyogenes; [3]) [µg/mL] | MIC (E.coli B; [4]) [µg/mL] | MIC (K.pneumoniae; [5]) [µg/mL] | MIC (S.flexneri; [6]) [µg/mL] | MIC (S.abortivoequina; [7]) [µg/mL] | MIC (P.mirabilis; [8]) [µg/mL] | ED50 (Staphylococcus aureus) [mg/kg] | MIC (S.abortivoequina) [µg/mL] | MIC (S.typhimurium; [9]) [µg/mL] | further results
1 | O=C(Cc1ccccc1)NC1C(=O)N2C(C(=O)O)=C(CSc3c[n+]([O-])ccn3)CSC12 (stereo not shown) [356/307, 7-phenylacetamido-3-(pyrazin-2-ylthiomethyl-4-oxide)-3-cephem-4-carboxylicacid] | 0.012 (≈ 0.0262 µM) | excellent antistaphylococcal activity, clearly superior to that of known cephalosporins | 1.5 (≈ 3.27 µM) | 6 (≈ 13.1 µM) | 1.5 (≈ 3.27 µM) | 12.5 (≈ 27.3 µM) | 25 (≈ 54.5 µM) | – | – | – | – | –
2 | O=C(Cc1ccccc1)NC1C(=O)N2C(C(=O)O)=C(CSc3cnccn3)CS[C@H]12 (stereo partly shown) [Compound 308, 7-phenylacetamido-3-pyrazinylthiomethyl-3-cephem-4-carboxylic acid] | 0.012 (≈ 0.0271 µM) | excellent antistaphylococcal activity, clearly superior to that of known cephalosporins | 1.5 (≈ 3.39 µM) | 1 to 2 (≈ 2.26 to 4.52 µM) | 0.75 (≈ 1.69 µM) | 50 (≈ 113 µM) | 100 (≈ 226 µM) | 50 (≈ 113 µM) | 17.5 | – | – | effectiveness on experimental staphylococcal infections (Staphylococcus aureus): more effective than cephazolin and cephalothin
3 | O=C(Cc1ccccc1)NC1C(=O)N2C(C(=O)O)=C(CSc3cncc(Cl)n3)CSC12 (stereo not shown) [Compound 310, 7-phenylacetamido-3-(6-chlorpyrazin-2-ylthiomethyl)-3-cephem-4-carboxylic acid] | 0.06 (≈ 0.126 µM) | excellent antistaphylococcal activity, clearly superior to that of known cephalosporins | 6.2 (≈ 13 µM) | 0.6 (≈ 1.26 µM) | 0.1 (≈ 0.21 µM) | > 50 | 50 (≈ 105 µM) | – | 35 | – | – | –
4 | NC(=O)c1cncc(SCC2=C(C(=O)O)N3C(=O)C(NC(=O)Cc4ccccc4)C3SC2)n1 (stereo not shown) [Compound 311, 7-phenylacetamido-3-(6-carboxamidopyrazin-2-ylthiomethyl)-3-cephem-4-carboxylic acid] | 0.06 (≈ 0.124 µM) | – | 1.5 (≈ 3.09 µM) | 5 (≈ 10.3 µM) | 1.5 to 2.5 (≈ 3.09 to 5.15 µM) | 12.5 (≈ 25.7 µM) | > 50 | > 50 | 17.5 | – | – | effectiveness on experimental staphylococcal infections (Staphylococcus aureus): more effective than cephazolin and cephalothin
5 | CC(=O)OCC1=C(C(=O)O)N2C(=O)C(NC(=O)CSc3cnccn3)C2SC1 (stereo not shown) [Compound 312, 7-pyrazinylthioacetamidocephalosporanic acid] | – | – | 3.1 (≈ 7.3 µM) | – | 1.5 (≈ 3.53 µM) | – | 25 (≈ 58.9 µM) | – | 40 | – | – | MIC (S.aureus): 0.12 µg/mL (≈ 0.283 µM); MIC (E.coli B): 5 µg/mL (≈ 11.8 µM); MIC (S.flexneri): 12.5 µg/mL (≈ 29.4 µM)
6 | NC(=O)c1cncc(SCC2=C(C(=O)O)N3C(=O)C(NC(=O)Cc4cccs4)C3SC2)n1 (stereo not shown) [Compound 313, 7-(2-thienyl)-acetamido-3-(6-carboxamidopyrazin-2-ylthiomethyl)-3-cephem-4-carboxylic acid] | 0.012 (≈ 0.0244 µM) | excellent antistaphylococcal activity, clearly superior to that of known cephalosporins | 1.25 (≈ 2.54 µM) | 2.5 (≈ 5.09 µM) | 1.25 (≈ 2.54 µM) | 6.25 (≈ 12.7 µM) | – | 50 (≈ 102 µM) | 20 | 6.25 (≈ 12.7 µM) | 12.5 (≈ 25.4 µM) | effectiveness on experimental staphylococcal infections (Staphylococcus aureus): more effective than cephazolin and cephalothin
7 | O=C(Cc1cccs1)NC1C(=O)N2C(C(=O)O)=C(CSc3cnccn3)CSC12 (stereo not shown) [Compound 314, 7-(2-thienyl)-acetamido-3-pyrazinylthiomethyl-3-cephem-4-carboxylic acid] | 0.003 (≈ 0.00669 µM) | – | 1.25 (≈ 2.79 µM) | 0.6 (≈ 1.34 µM) | 0.6 (≈ 1.34 µM) | 6.25 (≈ 13.9 µM) | – | 25 (≈ 55.7 µM) | 20 | 6.25 (≈ 13.9 µM) | – | MIC (S.typhimurium; TYPHIMURIUM): 6.25 µg/mL (≈ 13.9 µM)
8 | O=C(CSc1cnccn1)NC1C(=O)N2C(C(=O)O)=C(CSc3cncc(Cl)n3)CSC12 (stereo not shown) [Compound 315, 7-pyrazinylthioacetamido-3-(6-chloropyrazin-2-ylthiomethyl)-3-cephem-4-carboxylic acid] | 0.006 (≈ 0.0117 µM) | excellent antistaphylococcal activity, clearly superior to that of known cephalosporins | 1.25 (≈ 2.45 µM) | 2.5 (≈ 4.89 µM) | 1.25 (≈ 2.45 µM) | 50 (≈ 97.8 µM) | > 50 | > 50 | 40 | – | > 50 | –
9 | O=C(CSc1cnccn1)NC1C(=O)N2C(C(=O)O)=C(CSc3c[n+]([O-])ccn3)CSC12 (stereo not shown) [Compound 316, 7-pyrazinylthioacetamido-3-(pyrazin-2-ylthiomethyl-4-oxide)-3-cephem-4-carboxylic acid] | 0.025 (≈ 0.0508 µM) | excellent antistaphylococcal activity, clearly superior to that of known cephalosporins | 2.5 (≈ 5.08 µM) | 5 (≈ 10.2 µM) | 2.5 (≈ 5.08 µM) | 12.5 (≈ 25.4 µM) | – | > 50 | 40 | 12.5 (≈ 25.4 µM) | 50 (≈ 102 µM) | –
10 | COc1nccnc1SCC1=C(C(=O)O)N2C(=O)C(NC(=O)Cc3cccs3)C2SC1 (stereo not shown) [Compound 317, 7-(2-thienyl)-acetamido-3-(3-methoxy-pyrazin-2-ylthiomethyl)-3-cephem-4-carboxylic acid] | 0.005 (≈ 0.0104 µM) | – | – | 1.5 (≈ 3.13 µM) | 1.5 (≈ 3.13 µM) | 50 (≈ 104 µM) | > 50 | 50 (≈ 104 µM) | – | – | > 50 | –
11 | O=C(Cn1cnnn1)NC1C(=O)N2C(C(=O)O)=C(CSc3cnccn3)CSC12 (stereo not shown) [Compound 318, 7-[1-(1H)-tetrazolylacetamido]-3-pyrazinylthiomethyl-3-cephem-4-carboxylic acid] | 0.097 (≈ 0.223 µM) | – | – | 6.25 (≈ 14.4 µM) | 3.1 (≈ 7.14 µM) | 3.1 (≈ 7.14 µM) | 3.1 (≈ 7.14 µM) | 12.5 (≈ 28.8 µM) | – | – | 12.5 (≈ 28.8 µM) | –
12 | COc1cncc(SCC2=C(C(=O)O)N3C(=O)C(NC(=O)Cc4cccs4)C3SC2)n1 (stereo not shown) [Compound 321, 7-(2-Thienyl)-acetamido-3-(6-methoxypyrazin-2-ylthiomethyl)-3-cephem-4-carboxylic acid] | 0.037 (≈ 0.0773 µM) | – | 0.12 (≈ 0.251 µM) | 1.25 (≈ 2.61 µM) | 0.25 (≈ 0.522 µM) | 10 (≈ 20.9 µM) | 20 (≈ 41.8 µM) | 10 (≈ 20.9 µM) | 15 | – | 20 (≈ 41.8 µM) | ED50 ([1]; mice infected with Salmonella abortivo equina, subcutaneous 4 h after infection, read-out: ED50): 50 mg/kg
13 | CC(=O)OCC1=C(C(=O)O)N2C(=O)[C@@H](NC(=O)Cc3cccs3)[C@H]2SC1 [cephalothin, reference compound] | 0.1 (≈ 0.252 µM) | – | – | 1.25 (≈ 3.15 µM) | – | 1.5 (≈ 3.78 µM) | – | – | 30 | 1.5 (≈ 3.78 µM) | – | MIC (S.pyogenes): 1.25 µg/mL (≈ 3.15 µM); MIC (K.pneumoniae): 0.3 µg/mL (≈ 0.757 µM); MIC (P.mirabilis): 6.2 µg/mL (≈ 15.6 µM); MIC (S.typhimurium; TYPHIMURIUM): 3 µg/mL (≈ 7.57 µM); ED50 ([1]; Salmonella): 50 mg/kg
